Reference: ChEMBL document CHEMBL2150950, “Effect of 4-aryl-2-methyl-5-nitro-1,4-dihydropyridine-3-carboxylates on the guinea pig papillary muscle and isolated human vena saphena magna that is used for coronary artery bypass grafting” (2011)

How the values were obtained:
[1] = Ionotropic effect in guinea pig right ventricle papillary muscles assessed as contraction force at 10^-4 M by force transduction assay relative to untreated control (reference value: 100%) in presence of 3.1 x 10^-6 M inward rectifier current blocker BaCl2; type: functional, Cavia porcellus, Heart right ventricle
[2] = (§1) Ionotropic effect in guinea pig ventricle papillary muscles assessed as lengthening of 90% repolarized cardiac action potential duration time at 10^-6 M by microelectrode technique relative to untreated control (reference value: 209 to 222 APD50 ms) in presence of 3.1 x 10^-6 M inward rectifier current blocker BaCl2; type: functional, Cavia porcellus
[3] = (§2) Ionotropic effect in guinea pig ventricle papillary muscles assessed as lengthening of 90% repolarized cardiac action potential duration time at 10^-7 M by microelectrode technique relative to untreated control (reference value: 209 to 222 APD50 ms) in presence of 2 x 10^-5 M KATP channel blocker glibenclamide; type: functional, Cavia porcellus
[4] = as §2, with “10%” for “90%”, “10^-6” for “10^-7”, “52” for “209”, “54 APD10” for “222 APD50”; type: functional, Cavia porcellus
[5] = as §1, with “of 10%” for “of 90%”, “at 10^-4” for “at 10^-6”, “value: 52” for “value: 209”, “to 54 APD10” for “to 222 APD50”; type: functional, Cavia porcellus
[6] = as §1, with “1” for “3.1”, “IKr channel” for “inward rectifier current”, “Sotalol” for “BaCl2”; type: functional, Cavia porcellus
[7] = as §2, with “25%” for “90%”, “10^-5” for “10^-7”, “120” for “209”, “131 APD25” for “222 APD50”; type: functional, Cavia porcellus
[8] = Ionotropic effect in guinea pig ventricle papillary muscles assessed as lengthening of […] cardiac action potential duration time at 10^-5 M by microelectrode technique relative to untreated control (reference value: 37 to 47 […] ms); type: functional, Cavia porcellus, Papillary muscle
[9] = (§3) Ionotropic effect in guinea pig ventricle papillary muscles assessed as lengthening of 25% repolarized cardiac action potential duration time at 10^-4 M by microelectrode technique relative to untreated control (reference value: 120 to 131 APD25 ms) in presence of 1 x 10^-6 M IKr channel blocker Sotalol; type: functional, Cavia porcellus
[10] = as §2, with “10%” for “90%”, “10^-4” for “10^-7”, “52” for “209”, “54 APD10” for “222 APD50”; type: functional, Cavia porcellus
[11] = as §2, with “10^-4” for “10^-7”; type: functional, Cavia porcellus
[12] = Ionotropic effect in guinea pig ventricle papillary muscles assessed as lengthening of 25% repolarized cardiac action potential duration time at 10^-5 M by microelectrode technique relative to untreated control (reference value: 84 to 104 APD25 ms); type: functional, Cavia porcellus, Papillary muscle
[13] = as §1, with “of 50%” for “of 90%”, “at 10^-5” for “at 10^-6”, “value: 180” for “value: 209”, “to 192” for “to 222”; type: functional, Cavia porcellus
[14] = Ionotropic effect in guinea pig ventricle papillary muscles assessed as lengthening of 25% repolarized cardiac action potential duration time at 10^-7 M by microelectrode technique relative to untreated control (reference value: 84 to 104 APD25 ms); type: functional, Cavia porcellus, Papillary muscle
[15] = as §1, with “of 50%” for “of 90%”, “at 10^-4” for “at 10^-6”, “value: 180” for “value: 209”, “to 192” for “to 222”; type: functional, Cavia porcellus
[16] = as §1, with “of 25%” for “of 90%”, “at 10^-7” for “at 10^-6”, “value: 120” for “value: 209”, “to 131 APD25” for “to 222 APD50”; type: functional, Cavia porcellus
[17] = as §3, with “50%” for “25%”, “180” for “120”, “192 APD50” for “131 APD25”; type: functional, Cavia porcellus
[18] = Ionotropic effect in guinea pig ventricle papillary muscles assessed as lengthening of 25% repolarized cardiac action potential duration time at 10^-4 M by microelectrode technique relative to untreated control (reference value: 84 to 104 APD25 ms); type: functional, Cavia porcellus, Papillary muscle
[19] = Ionotropic effect in guinea pig right ventricle papillary muscles assessed as contraction force at 10^-5 M by force transduction assay relative to untreated control (reference value: 100%) in presence of 3.1 x 10^-6 M inward rectifier current blocker BaCl2; type: functional, Cavia porcellus, Heart right ventricle
[20] = as §2, with “50%” for “90%”, “10^-5” for “10^-7”, “180” for “209”, “192” for “222”; type: functional, Cavia porcellus
[21] = as §2, with “50%” for “90%”, “180” for “209”, “192” for “222”; type: functional, Cavia porcellus
[22] = as §2, with “at 10^-5” for “at 10^-7”, “of 1” for “of 2”, “x 10^-6” for “x 10^-5”, “M IKr” for “M KATP”, “blocker Sotalol” for “blocker glibenclamide”; type: functional, Cavia porcellus
[23] = Ionotropic effect in guinea pig right ventricle papillary muscles assessed as contraction force at 10^-6 M by force transduction assay relative to untreated control (reference value: 100%) in presence of 3.1 x 10^-6 M inward rectifier current blocker BaCl2; type: functional, Cavia porcellus, Heart right ventricle
[24] = Ionotropic effect in guinea pig right ventricle papillary muscles assessed as contraction force at 10^-6 M by force transduction assay relative to untreated control (reference value: 100%) in presence of 2 x 10^-5 M KATP channel blocker glibenclamide; type: functional, Cavia porcellus, Heart right ventricle
[25] = Ionotropic effect in guinea pig ventricle papillary muscles assessed as lengthening of 50% repolarized cardiac action potential duration time at 10^-5 M by microelectrode technique relative to untreated control (reference value: 132 to 176 APD50 ms); type: functional, Cavia porcellus, Papillary muscle
[26] = as §1, with “25%” for “90%”, “120” for “209”, “131 APD25” for “222 APD50”; type: functional, Cavia porcellus
[27] = as §3, with “50%” for “25%”, “10^-6” for “10^-4”, “180” for “120”, “192 APD50” for “131 APD25”; type: functional, Cavia porcellus
[28] = as §3, with “at 10^-6” for “at 10^-4”, “of 2” for “of 1”, “x 10^-5” for “x 10^-6”, “M KATP” for “M IKr”, “blocker glibenclamide” for “blocker Sotalol”; type: functional, Cavia porcellus
[29] = Ionotropic effect in guinea pig ventricle papillary muscles assessed as lengthening of 90% repolarized cardiac action potential duration time at 10^-7 M by microelectrode technique relative to untreated control (reference value: 132 to 176 APD50 ms); type: functional, Cavia porcellus, Papillary muscle
[30] = as §3, with “10%” for “25%”, “10^-7” for “10^-4”, “52” for “120”, “54 APD10” for “131 APD25”; type: functional, Cavia porcellus
[31] = Ionotropic effect in guinea pig right ventricle papillary muscles assessed as contraction force at 10^-4 M by force transduction assay relative to untreated control (reference value: 100%); type: functional, Cavia porcellus, Papillary muscle
[32] = as §3, with “50%” for “25%”, “10^-7” for “10^-4”, “180” for “120”, “192 APD50” for “131 APD25”; type: functional, Cavia porcellus

Molecule `CCCOCCOC(=O)C1=C(C)NC=C([N+](=O)[O-])C1c1ccccc1OC(F)F` (configuration not stated) has an Activity [1] of 204.5%, a Time [2] of 250.7 ms and a Time [3] of 234.5 ms. It also gave a Time [4] of 59.6 ms, a Time [5] of 61.36 ms and a Time [6] of 224 ms. The Time [7] was 155 ms, the Time [8] was 46 ms and the Time [9] was 142 ms. The Time [10] was 65 ms, the Time [11] was 276 ms and the Time [12] was 133 ms. It also gave a Time [13] of 231 ms, a Time [14] of 112.7 ms and a Time [15] of 238 ms. For the same molecule, the Time [16] was 146.5 ms, the Time [17] was 218.9 ms and the Time [18] was 146.9 ms. It also gave an Activity [19] of 193%, a Time [20] of 235 ms and a Time [21] of 209 ms. It also gave a Time [22] of 227.7 ms, an Activity [23] of 118% and an Activity [24] of 120%. It also gave a Time [25] of 205.8 ms, a Time [26] of 149.7 ms and a Time [27] of 192 ms. The Time [28] was 148 ms, the Time [29] was 221.6 ms and the Time [30] was 54.2 ms. It also gave an Activity [31] of 190.8% and a Time [32] of 195 ms.
